Results taken from publication PMC12454493, “Insight on novel sulfamoylphenyl pyrazole derivatives as anticancer carbonic anhydrase inhibitors” (Molecular Diversity, 2024).
Where two headings read alike, the source gives them in different places.

Legend:
HCT-116 = assay: NCI-60 one-dose SRB screen (Colon Cancer); type: cell-based; details: Homo sapiens, single dose 10 µM, 48 h, read-out: Growth inhibition percent (GI %)
KM12 = assay: NCI-60 one-dose SRB screen (Colon Cancer); type: cell-based; details: Homo sapiens, single dose 10 µM, 48 h, read-out: Growth inhibition percent (GI %)
HCT-15 = assay: NCI-60 one-dose SRB screen (Colon Cancer); type: cell-based; details: Homo sapiens, single dose 10 µM, 48 h, read-out: Growth inhibition percent (GI %)
COLO 205 = assay: NCI-60 one-dose SRB screen (Colon Cancer); type: cell-based; details: Homo sapiens, single dose 10 µM, 48 h, read-out: Growth inhibition percent (GI %)
SW-620 = assay: NCI-60 one-dose SRB screen (Colon Cancer); type: cell-based; details: Homo sapiens, single dose 10 µM, 48 h, read-out: Growth inhibition percent (GI %)
HT29 = assay: NCI-60 one-dose SRB screen (Colon Cancer); type: cell-based; details: Homo sapiens, HT-29, single dose 10 µM, 48 h, read-out: Growth inhibition percent (GI %)
HCC-2998 = assay: NCI-60 one-dose SRB screen (Colon Cancer); type: cell-based; details: Homo sapiens, single dose 10 µM, 48 h, read-out: Growth inhibition percent (GI %)
[1] = test system: MCF-7 breast cancer cell line; assay: Apoptotic assay, Annexin V-FITC/propidium iodide; type: cell-based, human
Protocol: S.1.4. Cell cycle analysis and Apoptotic assay
S.1.4.1. Cell cycle analysis […]
(§1) Briefly, cell lines were cultured and incubated with each of the tested compounds for 48 h. Then, the cells were collected by centrifugation and resuspended in 500 μl of 1X binding buffer. 5 μl of Annexin V-FITC was added and 5 μl of propidium iodide (PI […], optional.). The cells were incubated at room temperature for 5 min in the dark. Annexin V-FITC binding was analyzed by flow cytometry (Ex = 488 nm; Em = 530 nm) using FITC signal detector and PI staining was analyzed by the phycoerythrin emission signal detector.
S.1.4.2. Apoptotic assay: cell lines were cultured and incubated with each of the tested compounds for 48 h.
as §1, with “Then,” for “Briefly, cell lines were cultured and incubated with each of the tested compounds for 48 h. Then,”, “the” for “The”

UO-31 = assay: NCI-60 one-dose SRB screen (Renal Cancer); type: cell-based; details: Homo sapiens, single dose 10 µM, 48 h, read-out: Growth inhibition percent (GI %)
TK-10 = assay: NCI-60 one-dose SRB screen (Renal Cancer); type: cell-based; details: Homo sapiens, single dose 10 µM, 48 h, read-out: Growth inhibition percent (GI %)
786-0 = assay: NCI-60 one-dose SRB screen (Renal Cancer); type: cell-based; details: Homo sapiens, single dose 10 µM, 48 h, read-out: Growth inhibition percent (GI %)
CAKI-1 = assay: NCI-60 one-dose SRB screen (Renal Cancer); type: cell-based; details: Homo sapiens, single dose 10 µM, 48 h, read-out: Growth inhibition percent (GI %)
RXF 393 = assay: NCI-60 one-dose SRB screen (Renal Cancer); type: cell-based; details: Homo sapiens, single dose 10 µM, 48 h, read-out: Growth inhibition percent (GI %)
ACHN = assay: NCI-60 one-dose SRB screen (Renal Cancer); type: cell-based; details: Homo sapiens, single dose 10 µM, 48 h, read-out: Growth inhibition percent (GI %)
A498 = assay: NCI-60 one-dose SRB screen (Renal Cancer); type: cell-based; details: Homo sapiens, single dose 10 µM, 48 h, read-out: Growth inhibition percent (GI %)
SN12C = assay: NCI-60 one-dose SRB screen (Renal Cancer); type: cell-based; details: Homo sapiens, single dose 10 µM, 48 h, read-out: Growth inhibition percent (GI %)
[2] = test system: MCF-7 breast cancer cell line; assay: In vitro cytotoxicity, MTT assay; details: Homo sapiens
Protocol: In vitro cytotoxic activity:
Firstly, cultures were delivered into sterile area then each vial was supplied with 3 mL of medium or balanced salt solution free from phenol red and serum. Cultures were subjected to incubation foe 2-4 g. After the incubation period, MTT solubilization solution was added to remove the produced formazan crystals. Spectrophotometric measurement of absorbance was carried out at 690 nm for the background which then subtracted from absorbance measured at 570 nm. Five different drug concentrations were used 100, 25, 6.3, 1.6 and 0.4 nM and measured in triplicate.
was determined using Annexin V-FITC Apoptosis Detection Kit (Bio Vision) according to the manufacturer’s procedures. Briefly, cell lines were cultured and incubated with each of the tested compounds for 48 h. Then, the cells were collected by centrifugation and resuspended in 500 μl of 1X binding buffer. 5 μl of Annexin V-FITC was added and 5 μl of propidium iodide (PI 50 mg/ml, optional.). The cells were incubated at room temperature for
Then, the cells were collected by centrifugation and resuspended in 500 μl of 1X binding buffer. 5 μl of Annexin V-FITC was added and 5 μl of propidium iodide (PI 50 mg/ml, optional.). the cells were incubated at room temperature for 5 min in the dark.

[3] = test system: MCF-7 breast cancer cell line; assay: Cell cycle analysis by flow cytometry; type: cell-based, human; details: 24 h
BT-549 = assay: NCI-60 one-dose SRB screen (Breast Cancer); type: cell-based; details: Homo sapiens, single dose 10 µM, 48 h, read-out: Growth inhibition percent (GI %)
T-47D = assay: NCI-60 one-dose SRB screen (Breast Cancer); type: cell-based; details: Homo sapiens, T47D, single dose 10 µM, 48 h, read-out: Growth inhibition percent (GI %)
[4] = test system: panel of 60 cancer cell lines; assay: NCI-60 one-dose SRB screen, range over the whole panel; type: cell-based; details: Homo sapiens; single dose 10 µM, SRB assay, range over the tested cell lines; read-out: growth inhibition (GI %) range over the panels
Protocol: The National Cancer Institute (NCI) Developmental Therapeutic Program (www.dtp.nci.nih.gov) selected the 20 novel synthesized compounds 4a-e, 5a-e, 6a-c, 9a-e, 10 and 11 to test for their anticancer activity at a single dose of 10 µM using SRB assay. […] Supplementary Data S3; Table S1 presents the detailed screening results of the most promising compounds. The preliminary screening’s detailed results for the remaining compounds are elucidated in the (Supplementary Data S3; Table S2).
The guidelines of the Drug Evaluation Branch’s protocol at the NCI in Bethesda served as the basis for the in vitro anticancer screening assays. at one dose 10 µM against a panel of 60 cancer cell lines. The human tumor cell lines used belonged to nine panels: leukemia, melanoma, lung, colon, CNS, ovarian, renal, prostate and breast cancers using the sulforhodamine B (SRB) assay in a 48 h drug exposure protocol.

[5] = MCF-7, hypoxic conditions, at IC50 (3.50 µM)
[6] = MCF-7, normal conditions, at IC50 (5.21 µM)

## CCOC(=O)c1ccc(NC(=O)COC(=O)c2cn(-c3ccc(S(N)(=O)=O)cc3)nc2-c2ccc(C)cc2)cc1 [Compound 5b, 2-[(4-(Ethoxycarbonyl)phenyl)amino]-2-oxoethyl 1-(4-sulfamoylphenyl)-3-(p-tolyl)-1H-pyrazole-4-carboxylate]
HCT-116
  inhibition at 10 µM: 60.7%
KM12
  inhibition at 10 µM: 70.3%
HCT-15
  inhibition at 10 µM: 65.7%
COLO 205
  inhibition at 10 µM: 42.3%
SW-620
  inhibition at 10 µM: 37%
HT29
  inhibition at 10 µM: 64.4%
HCC-2998
  inhibition at 10 µM: 47%
[1]; MCF-7, hypoxic conditions
  Apoptosis % Early %: 21.41%
  Apoptosis % Late %: 11.49%
  Apoptosis % Total %: 37.31%
  Necrosis %: 4.41%
[1]; MCF-7, normal conditions
  Apoptosis % Early %: 13.52%
  Apoptosis % Late %: 25.05%
  Necrosis %: 3.76%
UO-31
  inhibition at 10 µM: 58.8%
TK-10
  inhibition at 10 µM: 14%
786-0
  inhibition at 10 µM: 66%
CAKI-1
  inhibition at 10 µM: 70.2%
RXF 393
  inhibition at 10 µM: 73.2%
ACHN
  inhibition at 10 µM: 52.8%
A498
  inhibition at 10 µM: 31.7%
SN12C
  inhibition at 10 µM: 38.2%
[2]; MCF7, read-out: IC50 (µM) ± SD cytotoxic activity, MCF-7, MTT, normal conditions
  IC50: 5.21 ± 0.21 µM
[2]; MCF7, read-out: IC50 (µM) ± SD cytotoxic activity, MCF-7, MTT, under hypoxia
  IC50: 3.5 ± 0.14 µM
[3]; [5]
  DNA content % G0-G1: 48.13%
  DNA content % G2/M: 32.28%
  DNA content % S: 19.59%
[3]; [6]
  DNA content % G0-G1: 67.39%
  DNA content % G2/M: 3.05%
  DNA content % S: 29.56%
BT-549
  inhibition at 10 µM: 39.7%
T-47D
  inhibition at 10 µM: 53.5%

## NS(=O)(=O)c1ccc(NC(=O)COC(=O)c2cn(-c3ccc(S(N)(=O)=O)cc3)nc2-c2ccc(Br)cc2)cc1 [Compound 4d, 2-Oxo-2-[(4-sulfamoylphenyl)amino] ethyl 3-(4-bromophenyl)-1-(4-sulfamoylphenyl)-1H-pyrazole-4-carboxylate]
HCT-116
  inhibition at 10 µM: 84.6%
KM12
  inhibition at 10 µM: < 5%
HCT-15
  inhibition at 10 µM: 10.6%
COLO 205
  inhibition at 10 µM: 8.46%
SW-620
  inhibition at 10 µM: < 5%
HT29
  inhibition at 10 µM: < 5%
HCC-2998
  inhibition at 10 µM: < 5%
[4]
  inhibition at 10 µM: 8.46 to 86.5%
UO-31
  inhibition at 10 µM: 23.2%
TK-10
  inhibition at 10 µM: < 5%
786-0
  inhibition at 10 µM: 86.5%
CAKI-1
  inhibition at 10 µM: 63.5%
RXF 393
  inhibition at 10 µM: < 5%
ACHN
  inhibition at 10 µM: < 5%
A498
  inhibition at 10 µM: 16.8%
SN12C
  inhibition at 10 µM: 11.8%
BT-549
  inhibition at 10 µM: 79.9%
T-47D
  inhibition at 10 µM: 52.3%

## COc1ccc(-c2nn(-c3ccc(S(N)(=O)=O)cc3)cc2C(=O)OCC(=O)Nc2ccc(S(N)(=O)=O)cc2)cc1 [Compound 4c, 2-Oxo-2-[(4-sulfamoylphenyl)amino] ethyl 3-(4-methoxyphenyl)-1-(4-sulfamoylphenyl)-1H-pyrazole-4-carboxylate]
HCT-116
  inhibition at 10 µM: 37.5%
KM12
  inhibition at 10 µM: < 5%
HCT-15
  inhibition at 10 µM: < 5%
COLO 205
  inhibition at 10 µM: < 5%
SW-620
  inhibition at 10 µM: < 5%
HT29
  inhibition at 10 µM: < 5%
HCC-2998
  inhibition at 10 µM: < 5%
UO-31
  inhibition at 10 µM: 11.9%
TK-10
  inhibition at 10 µM: < 5%
786-0
  inhibition at 10 µM: 28.9%
CAKI-1
  inhibition at 10 µM: 8.36%
RXF 393
  inhibition at 10 µM: < 5%
ACHN
  inhibition at 10 µM: < 5%
A498
  inhibition at 10 µM: < 5%
SN12C
  inhibition at 10 µM: < 5%
BT-549
  inhibition at 10 µM: 41.6%
T-47D
  inhibition at 10 µM: < 5%

## Cc1ccc(-c2nn(-c3ccc(S(N)(=O)=O)cc3)cc2C(=O)NNC(N)=S)cc1 [Compound 9b, 2-[1-(4-Sulfamoylphenyl)-3-(p-tolyl)-1H-pyrazole-4-carbonyl] hydrazine-1-carbothioamide]
HCT-116
  inhibition at 10 µM: < 5%
KM12
  inhibition at 10 µM: < 5%
HCT-15
  inhibition at 10 µM: < 5%
COLO 205
  inhibition at 10 µM: < 5%
SW-620
  inhibition at 10 µM: < 5%
HT29
  inhibition at 10 µM: < 5%
HCC-2998
  inhibition at 10 µM: < 5%
UO-31
  inhibition at 10 µM: < 5%
TK-10
  inhibition at 10 µM: < 5%
786-0
  inhibition at 10 µM: < 5%
CAKI-1
  inhibition at 10 µM: 7.05%
RXF 393
  inhibition at 10 µM: < 5%
ACHN
  inhibition at 10 µM: < 5%
A498
  inhibition at 10 µM: < 5%
SN12C
  inhibition at 10 µM: < 5%
BT-549
  inhibition at 10 µM: < 5%
T-47D
  inhibition at 10 µM: < 5%

## CS(=O)(=O)c1ccc(-c2nn(-c3ccc(S(N)(=O)=O)cc3)cc2C(=O)NNC(N)=S)cc1 [Compound 9e, 2-[3-(4-(Methylsulfonyl)phenyl)-1-(4-sulfamoylphenyl)-1H-pyrazole-4-carbonyl] hydrazine-1-carbothioamide]
HCT-116
  inhibition at 10 µM: < 5%
KM12
  inhibition at 10 µM: < 5%
HCT-15
  inhibition at 10 µM: < 5%
COLO 205
  inhibition at 10 µM: < 5%
SW-620
  inhibition at 10 µM: < 5%
HT29
  inhibition at 10 µM: < 5%
HCC-2998
  inhibition at 10 µM: < 5%
UO-31
  inhibition at 10 µM: 5.48%
TK-10
  inhibition at 10 µM: < 5%
786-0
  inhibition at 10 µM: < 5%
CAKI-1
  inhibition at 10 µM: 9.93%
RXF 393
  inhibition at 10 µM: < 5%
ACHN
  inhibition at 10 µM: < 5%
A498
  inhibition at 10 µM: < 5%
SN12C
  inhibition at 10 µM: < 5%
BT-549
  inhibition at 10 µM: < 5%
T-47D
  inhibition at 10 µM: < 5%

## COc1ccc(-c2nn(-c3ccc(S(N)(=O)=O)cc3)cc2C(=O)OCC(=O)Nc2nnc(S(N)(=O)=O)s2)cc1 [Compound 6c, 2-Oxo-2-[(5-sulfamoyl-1,3,4-thiadiazol-2-yl)amino] ethyl 3-(4-methoxyphenyl)-1-(4-sulfamoylphenyl)-1H-pyrazole-4-carboxylate]
HCT-116
  inhibition at 10 µM: < 5%
KM12
  inhibition at 10 µM: < 5%
HCT-15
  inhibition at 10 µM: < 5%
COLO 205
  inhibition at 10 µM: < 5%
SW-620
  inhibition at 10 µM: < 5%
HT29
  inhibition at 10 µM: < 5%
HCC-2998
  inhibition at 10 µM: < 5%
UO-31
  inhibition at 10 µM: 14.9%
TK-10
  inhibition at 10 µM: < 5%
786-0
  inhibition at 10 µM: < 5%
CAKI-1
  inhibition at 10 µM: 21.5%
RXF 393
  inhibition at 10 µM: < 5%
ACHN
  inhibition at 10 µM: < 5%
A498
  inhibition at 10 µM: 7.75%
SN12C
  inhibition at 10 µM: < 5%
BT-549
  inhibition at 10 µM: < 5%
T-47D
  inhibition at 10 µM: < 5%

## NC(=S)NNC(=O)c1cn(-c2ccc(S(N)(=O)=O)cc2)nc1-c1ccc(Br)cc1 [Compound 9d, 2-[3-(4-Bromophenyl)-1-(4-sulfamoylphenyl)-1H-pyrazole-4-carbonyl] hydrazine-1-carbothioamide]
HCT-116
  inhibition at 10 µM: < 5%
KM12
  inhibition at 10 µM: < 5%
HCT-15
  inhibition at 10 µM: < 5%
COLO 205
  inhibition at 10 µM: < 5%
SW-620
  inhibition at 10 µM: < 5%
HT29
  inhibition at 10 µM: < 5%
HCC-2998
  inhibition at 10 µM: < 5%
UO-31
  inhibition at 10 µM: 14.7%
TK-10
  inhibition at 10 µM: < 5%
786-0
  inhibition at 10 µM: < 5%
CAKI-1
  inhibition at 10 µM: 12.1%
RXF 393
  inhibition at 10 µM: < 5%
ACHN
  inhibition at 10 µM: < 5%
A498
  inhibition at 10 µM: < 5%
SN12C
  inhibition at 10 µM: < 5%
BT-549
  inhibition at 10 µM: < 5%
T-47D
  inhibition at 10 µM: 7.04%
